Where a name gives a salt, the structure may show the parent alone.

The source of these data is patent publication US20250326748A1, “COMPOUNDS AND METHODS FOR MODULATING SPLICING” (REMIX THERAPEUTICS INC., priority 2022, published 2025).

The test system of this assay is HiBiT-tagged MYB protein. The assay is described as follows: HiBiT protein abundance assay, MYB (K562 HiBiT knock-in). Format: cell-based, human. Conditions: HiBiT knock-in cells, 24 hours. The procedure:
Compounds described herein were used to screen for effects on quantitative protein abundance using a HiBit assay system (Promega). Quantitative protein abundance was determined by measuring the protein levels of HiBit-tagged protein targets expressed in cell culture via luminescence using the Nano-Glo HiBiT Lytic Detection System, which uses a split complementation assay format to reconstitute NanoBiT enzyme to generate a luminescent signal. A protein abundance assay was developed such that endogenous protein targets could be modified with the HiBiT peptide tag and their abundance could be assessed after compound treatment. Briefly, K562 cell lines containing a HiBiT-modification were treated with various compounds described herein (e.g., compounds of Formulas (I), or (II)). After treatment for 24 hours, the protein abundance of a specific target was determined by measuring luminescence.
• Promega Nano-Glo HiBiT Lytic Detection System (cat #N3030) • Corning 384-well TC-treated microplates (cat #3570)
Cells were maintained in IMDM with 10% FBS. Before the assay, cells were diluted with […] growth media (IMDM+1% FBS media) and were seeded in a 384-well plate at a density of 10000 cells/well (for each cell line listed in Table 6). Each compound was prepared as a 10-point 3-old serial dilution in DMSO with the top dose at a final concentration of 10 μM in the well. Unmodified K562 cells were added at the previously specified density with DMSO to serve as an assay baseline and positive control (PC) and DMSO only with the respective modified cell lines was added to the negative control (NC) columns. Final DMSO concentration was kept at or below 0.25%. Treated cell plates were placed in an incubator at 37° C. with 5% CO2 for 24 hours. After 24 hours, 25 μL of Complete HiBit Lytic reagent was added to each well at room temperature (e.g. one plate requiring 10 ml Lytic Buffer, 100 μL LgBiT Protein, 200 μL Lytic Substrate), shaken for 5 minutes at 600 RPM, then left to sit for 10 minutes for signal to stabilize before reading on a Spark Cyto plate reader (Tecan) with a 500 ms measurement time.
To determine compound effects on protein abundance of each target in Table 6, the percent response for each respective cell line was calculated at each compound concentration as follows:
For the normalized response at each concentration, a four-parameter logistical regression was fit to the data and the response was interpolated at the 50% value to determine a concentration for protein abundance at 50% (IC50) the untreated control.
A general note: With HiBiT, luminescence reflects the tagged protein that the partner subunit can reach.

What is called IC50 is the midpoint of a concentration-inhibition curve. `CN[C@@H]1CN(c2cnc3nc(-c4cc5cn(C)nc5c(C)c4O)ccc3c2)C[C@H]1F` (single isomer, unassigned) [Compound 130] displayed an IC50 of 100 to 1000 nM.

`CN[C@H]1CN(c2cnc3nc(-c4cc5cn(C)nc5c(C)c4O)ccc3c2)C[C@@H]1F` (single isomer, unassigned) [Compound 131]: the half-maximal inhibitory concentration (IC50) was in the range of 100 to 1000 nM.

`Cc1c(O)c(-c2ccc3cc(N4CCC(NCC5CC5)C4)cnc3n2)cc2cn(C)nc12` (stereo in doubt) [Compound 119, 5-{6-[(3R)-3-[(cyclopropylmethyl)amino]pyrrolidin-1-yl]-1,8-naphthyridin-2-yl}-2,7-dimethylindazol-6-ol] came in with an IC50 below 100 nM. The compound `CNC1CCN(c2cnc3nc(-c4cc5cn(C)nc5c(C)c4O)ncc3c2)C1` (stereo not drawn) [Compound 104, 2,7-dimethyl-5-{6-[3-(methylamino)pyrrolidin-1-yl]pyrido[2,3-d]pyrimidin-2-yl}indazol-6-ol] returned a concentration for half-maximal inhibition (IC50) below 100 nM. The value for `Cc1c(O)c(-c2ccc3cc(N4CCC(NCC5CC5)C4)cnc3n2)cc2cn(C)nc12` (stereo not drawn) [Compound 105, 5-(6-{3-[(cyclopropylmethyl)amino]pyrrolidin-1-yl}-1,8-naphthyridin-2-yl)-2,7-dimethylindazol-6-ol] was below 100 nM.

Compound `CCNC1CCN(c2cnc3nc(-c4cc5cn(C)nc5c(F)c4O)ccc3c2)C1` (stereo not drawn) [Compound 106, 5-{6-[3-(ethylamino)pyrrolidin-1-yl]-1,8-naphthyridin-2-yl}-7-fluoro-2-methylindazol-6-ol] showed an IC50 below 100 nM. In turn, `CN[C@@H]1CCN(c2cnc3nc(-c4cc5cn(C)nc5c(C)c4O)ncc3c2)C1` [Compound 107, 2,7-dimethyl-5-{6-[(3R)-3-(methylamino)pyrrolidin-1-yl]pyrido[2,3-d]pyrimidin-2-yl}indazol-6-ol hydrochloride] had an IC50 below 100 nM. For the compound `CN[C@@H]1CCN(c2cnc3nc(-c4cc5cn(C)nc5c(C)c4O)ccc3c2)C1` [Compound 112], the IC50 was below 100 nM.

As for `Cc1cn2nc(-c3cnc4nc(C5CCNCC5)ccc4c3)cc(C)c2n1` [Compound 115, 6-(2,8-dimethylimidazo[1,2-b]pyridazin-6-yl)-2-(piperidin-4-yl)-1,8-naphthyridine], the IC50 was in the range of 1000 to 10000 nM. Next, `CN[C@H]1CCN(c2cnc3nc(-c4cc(C)c5nc(C)cn5n4)ccc3c2)C1` [Compound 116]: below 100 nM; `CN[C@@H]1CCN(c2cnc3nc(-c4cc(C)c5nc(C)cn5n4)ccc3c2)C1` [Compound 117]: below 100 nM; `Cc1c(O)c(-c2ccc3cc(N4CC[C@@H](NCC5CC5)C4)cnc3n2)cc2cn(C)nc12` [Compound 118]: below 100 nM. On to `CN[C@H]1CCN(c2cnc3nc(-c4cc5cn(C)nc5c(C)c4O)ncc3c2)C1` [Compound 120], for which the concentration for half-maximal inhibition (IC50) was below 100 nM.

In the case of `CCNC1CCN(c2cnc3nc(-c4cc5cn(C)nc5c(C)c4O)ccc3c2)C1` (stereo not drawn) [Compound 122, 5-{6-[3-(ethylamino)pyrrolidin-1-yl]-1,8-naphthyridin-2-yl}-2,7-dimethylindazol-6-ol], the IC50 was below 100 nM.

`CCN[C@H]1CCN(c2cnc3nc(-c4cc5cn(C)nc5c(C)c4O)ccc3c2)C1` [Compound 123] yielded a half-maximal inhibitory concentration (IC50) below 100 nM. In turn, `CCN[C@@H]1CCN(c2cnc3nc(-c4cc5cn(C)nc5c(C)c4O)ccc3c2)C1` [Compound 124] returned a half-maximal inhibitory concentration (IC50) below 100 nM.

In turn, `CN[C@H]1CN(c2cnc3nc(-c4cc5cn(C)nc5c(C)c4O)ccc3c2)C[C@H]1C` [Compound 125, 2,7-dimethyl-5-{6-[(3R,4R)-3-methyl-4-(methylamino)379pyrrolidine-1-yl]-1,8-naphthyridin-2-yl}indazol-6-ol] showed an IC50 below 100 nM. Consider `CN[C@@H]1CN(c2cnc3nc(-c4cc5cn(C)nc5c(C)c4O)ccc3c2)C[C@H]1C` [Compound 126, 2,7-dimethyl-5-{6-[(3R,4S)-3-methyl-4-(methylamino)382pyrrolidine-1-yl]-1,8-naphthyridin-2-yl}indazol-6-ol], for which the IC50 fell in the range of 100 to 1000 nM.
